# Laboratory results as given in ChEMBL document CHEMBL1147594, “Evaluation of loxoprofen and its alcohol metabolites for potency and selectivity of inhibition of cyclooxygenase-2” (Bioorg Med Chem Lett, 2004).
# Experiments:
# [1] = target: T1, Prostaglandin G/H synthase 1 (Homo sapiens, UniProt P23219); assay: Inhibitory activity against recombinant human prostaglandin G/H synthase 1
# [2] = target: T1, Prostaglandin G/H synthase 1
# Description: Inhibitory potency against Prostaglandin G/H synthase 1 in human whole blood assay
# [3] = target: T2, Prostaglandin G/H synthase 2 (Homo sapiens, UniProt P35354)
# T2 sequence (P35354 whole entry): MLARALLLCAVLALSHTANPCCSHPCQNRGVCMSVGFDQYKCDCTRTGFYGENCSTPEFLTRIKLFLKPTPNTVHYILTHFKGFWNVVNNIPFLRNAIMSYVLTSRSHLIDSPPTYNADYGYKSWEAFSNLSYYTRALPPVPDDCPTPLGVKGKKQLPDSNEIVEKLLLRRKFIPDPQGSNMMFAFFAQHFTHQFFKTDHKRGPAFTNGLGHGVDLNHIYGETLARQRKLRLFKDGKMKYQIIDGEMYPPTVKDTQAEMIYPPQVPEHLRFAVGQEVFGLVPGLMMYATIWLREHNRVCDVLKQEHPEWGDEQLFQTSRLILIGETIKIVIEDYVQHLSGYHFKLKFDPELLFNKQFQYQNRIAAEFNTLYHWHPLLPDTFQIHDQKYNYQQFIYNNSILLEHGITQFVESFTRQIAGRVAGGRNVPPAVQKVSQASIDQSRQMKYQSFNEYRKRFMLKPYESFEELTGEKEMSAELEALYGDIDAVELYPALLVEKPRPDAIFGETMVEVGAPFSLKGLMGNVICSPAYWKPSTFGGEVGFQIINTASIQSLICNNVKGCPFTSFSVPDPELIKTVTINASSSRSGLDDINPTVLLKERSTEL
# Description: Inhibitory potency against cyclooxygenase-2 in human whole blood assay
# [4] = target: T2, Prostaglandin G/H synthase 2; remark: listed apart in the source
# Description: Inhibitory activity against recombinant human Prostaglandin G/H synthase 2
# T1 sequence (P23219 whole entry): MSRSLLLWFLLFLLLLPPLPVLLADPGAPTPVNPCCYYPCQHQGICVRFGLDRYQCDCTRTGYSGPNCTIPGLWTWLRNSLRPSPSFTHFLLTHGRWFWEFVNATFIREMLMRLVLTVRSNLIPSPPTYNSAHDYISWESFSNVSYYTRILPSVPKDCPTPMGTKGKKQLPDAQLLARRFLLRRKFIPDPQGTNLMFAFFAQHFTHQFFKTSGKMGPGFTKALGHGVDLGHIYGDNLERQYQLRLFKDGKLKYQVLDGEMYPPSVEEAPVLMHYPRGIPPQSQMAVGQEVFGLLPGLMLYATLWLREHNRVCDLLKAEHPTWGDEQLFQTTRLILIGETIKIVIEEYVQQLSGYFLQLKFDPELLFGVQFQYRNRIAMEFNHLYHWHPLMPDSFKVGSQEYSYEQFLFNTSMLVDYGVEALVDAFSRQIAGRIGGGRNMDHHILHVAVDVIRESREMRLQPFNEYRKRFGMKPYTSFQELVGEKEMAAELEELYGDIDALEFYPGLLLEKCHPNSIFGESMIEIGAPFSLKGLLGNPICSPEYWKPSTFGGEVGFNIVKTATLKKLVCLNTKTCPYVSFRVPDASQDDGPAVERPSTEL
IC50 [1] [µM],IC50 [2] [µM],IC50 [3] [µM],IC50 [4] [µM],SMILES
> 100,15.3,0.48,0.23,CS(=O)(=O)c1ccc(C2=C(c3ccc(F)c(F)c3)C(=O)OC2)cc1
> 100,6.5,13.5,> 100,CC(C(=O)O)c1ccc(CC2CCCC2=O)cc1 (stereo not drawn) [LOXOPROFEN]
